From PubChem BioAssay (NCI) come the findings set out here.

Each structure is given as a SMILES string. Where “and” joins values, the source holds several entries; their conditions need not be identical. Equal entries are not always repeated.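 In this assay, cells in 96-well plates receive the compound at five concentrations for 48 hours. Endpoints are linearly interpolated between the surrounding concentrations. GI50: concentration for 50% inhibition of growth. TGI denotes the concentration required for complete inhibition of growth.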

Among the test systems are CAKI-1 renal; SK-MEL-2 melanoma; RXF 393 renal; A498 renal; OVCAR-3 ovarian; NCI-H522 lung; HOP-62 NSCLC; ACHN renal; HCT-116 colon; MALME-3M melanoma.
Common to all, as to assay: NCI-60 cell line screen, 48 h

As for `CCCCCCNC(=O)Oc1ccc(/C(=C(/C)Cc2ccc(OC)cc2)c2ccc(OCCCN(C)C)cc2)cc1`, the GI50 in the test with CAKI-1 renal is 14.5 µM; in the test with SK-MEL-2 melanoma, 18.5 µM; in the test with RXF 393 renal, 14.8 µM; in the test with A498 renal it was 14.1 µM; in the test with OVCAR-3 ovarian, 15.2 µM; with NCI-H522 lung, 16.2 µM. For the same compound, the GI50 in the test with HOP-62 NSCLC was 18.4 µM; in the test on ACHN renal, 16.4 µM; in the test on HCT-116 colon it was 12.6 µM; in the test with MALME-3M melanoma, 15.3 µM. For the same compound, the TGI with CAKI-1 renal is 27.8 µM; in the test on SK-MEL-2 melanoma, 34 µM; in the test on RXF 393 renal it was 29.7 µM; with A498 renal, 27.3 µM; with OVCAR-3 ovarian, 29.3 µM; in the test with NCI-H522 lung, 31.3 µM. Further, the TGI turned out to be 34.2 µM in the test on HOP-62 NSCLC, 30.4 µM in the test on ACHN renal, 25.7 µM with HCT-116 colon and 30.5 µM in the test with MALME-3M melanoma.
With `COC(=O)C1C=CCON2CCc3c(n(C)c4ccccc34)C12` (stereo unspecified), the TGI in the test on CAKI-1 renal, in the test on SK-MEL-2 melanoma, with RXF 393 renal, with A498 renal, in the test on OVCAR-3 ovarian and with NCI-H522 lung was over 100 µM each time. For the same compound, the TGI with HOP-62 NSCLC, with ACHN renal, with HCT-116 colon and in the test on MALME-3M melanoma was over 100 µM in each case.
Take `N#CC1CCCCOCCOCCOCCOCCOCCCCCC1=O` (stereo unspecified): the TGI in the test on CAKI-1 renal, in the test on SK-MEL-2 melanoma, in the test with RXF 393 renal, in the test with A498 renal, with OVCAR-3 ovarian and with NCI-H522 lung was over 100 µM each time. The TGI with HOP-62 NSCLC, in the test on ACHN renal, with HCT-116 colon and with MALME-3M melanoma was over 100 µM throughout.
As for `CC(=O)OC1=CC2=CC[C@H]3[C@@H]4CCC(=O)[C@@]4(C)CC(=O)[C@]3(S)[C@@]2(C)CC1`, the TGI with CAKI-1 renal was over 100 µM; in the test on SK-MEL-2 melanoma, over 100 µM; in the test with RXF 393 renal, 39.7 µM; in the test with A498 renal it was over 100 µM; in the test with OVCAR-3 ovarian, 69.3 µM; in the test with NCI-H522 lung, 63 µM. The TGI was over 100 µM with HOP-62 NSCLC, over 100 µM with ACHN renal, 49.3 µM with HCT-116 colon and 57.2 µM with MALME-3M melanoma.
Take `Cc1ccc(NC(=O)C2C(=O)N(c3ccc(C)c(C)c3)C(=O)/C2=N\NC(N)=O)cc1C` (stereo unspecified): the TGI in the test with CAKI-1 renal, in the test on SK-MEL-2 melanoma, in the test with RXF 393 renal, with A498 renal, in the test on OVCAR-3 ovarian and in the test with NCI-H522 lung was over 100 µM each time. Moreover, the TGI with HOP-62 NSCLC, with ACHN renal, with HCT-116 colon and in the test with MALME-3M melanoma was over 100 µM each time.
For `S=C(Nc1ccc(N=Nc2ccccc2)cc1)SCc1ccccc1`, the TGI stood at 32.9 µM in the test on CAKI-1 renal; 50 µM with SK-MEL-2 melanoma; 46.4 µM in the test on RXF 393 renal; 43.7 µM with A498 renal; 29.4 µM in the test with OVCAR-3 ovarian; 36.2 µM in the test on NCI-H522 lung. The TGI in the test on HOP-62 NSCLC was found to be 41.3 µM; in the test on ACHN renal, 31.3 µM; in the test with HCT-116 colon, 31.9 µM; with MALME-3M melanoma, 22.9 µM.
With `O=C1C2=C(c3ccccc31)C(c1ccccc1)N1C(=O)CSC1=N2` (stereo unspecified), the TGI with CAKI-1 renal was over 100 µM; in the test with SK-MEL-2 melanoma it was over 100 µM; in the test with RXF 393 renal, 60.5 µM; in the test on A498 renal it was over 100 µM; in the test on OVCAR-3 ovarian, over 100 µM; in the test on NCI-H522 lung, over 79.8 µM. The TGI in the test on HOP-62 NSCLC, in the test on ACHN renal, in the test on HCT-116 colon and with MALME-3M melanoma was over 100 µM in each case.
Regarding `CC(C)N1CCN(Cc2ccc3c(NNC(=O)c4ccccc4)nc4cc(F)ccc4n23)CC1`, the GI50 is 0.249 µM in the test on CAKI-1 renal; 2.78 µM in the test with SK-MEL-2 melanoma; 0.792 µM in the test on RXF 393 renal; 0.564 µM in the test on A498 renal; 0.289 µM in the test with OVCAR-3 ovarian; 0.532 µM in the test with NCI-H522 lung. Besides, the GI50 was 0.176 µM in the test with HOP-62 NSCLC, 0.0902 µM in the test on ACHN renal, 0.238 µM in the test on HCT-116 colon and 0.575 µM with MALME-3M melanoma. In addition, the TGI in the test with CAKI-1 renal was 6.26 µM; with SK-MEL-2 melanoma, 20.8 µM; in the test with RXF 393 renal it was 8.87 µM; in the test with A498 renal it was 4.12 µM; with OVCAR-3 ovarian it was 6.79 µM; in the test with NCI-H522 lung, 5.05 µM. In addition, the TGI amounted to 13.7 µM with HOP-62 NSCLC, 12 µM in the test with ACHN renal, 1.45 µM in the test with HCT-116 colon and 2.4 µM in the test with MALME-3M melanoma.
Consider `COc1ccc2c(C3(c4cn(C)c5cc(OC)ccc45)C(=O)Nc4ccc(Cl)cc43)cn(C)c2c1`, for which the GI50 is 2.04 µM in the test with CAKI-1 renal; 2.97 µM in the test with SK-MEL-2 melanoma; 2.5 µM with RXF 393 renal; 4.5 µM in the test on A498 renal; 4.31 µM in the test with OVCAR-3 ovarian; 3.38 µM in the test on NCI-H522 lung. The GI50 is 4.2 µM in the test on HOP-62 NSCLC, 3.32 µM in the test on ACHN renal, 3.15 µM with HCT-116 colon and 3.62 µM in the test with MALME-3M melanoma. Moreover, the TGI was over 100 µM in the test on CAKI-1 renal; 6.55 µM in the test on SK-MEL-2 melanoma; 7.87 µM with RXF 393 renal; 88.7 µM in the test with A498 renal; 18.4 µM in the test with OVCAR-3 ovarian; 12.7 µM in the test with NCI-H522 lung. Moreover, the TGI in the test on HOP-62 NSCLC was over 100 µM; in the test on ACHN renal, over 100 µM; in the test with HCT-116 colon, 19.7 µM; with MALME-3M melanoma, 57.6 µM.
As to `COc1cc(NS(C)(=O)=O)ccc1Nc1c2ccccc2nc2ccccc12`, the GI50 in the test on CAKI-1 renal is 0.55 µM and 0.213 µM and 0.308 µM; with SK-MEL-2 melanoma, 18 µM and 4.55 µM and 5.73 µM; in the test with RXF 393 renal it was 3.37 µM and 2.18 µM and 2.23 µM; in the test with A498 renal it was 1.61 µM and 0.237 µM and 0.405 µM; in the test with OVCAR-3 ovarian it was 4 µM; in the test on NCI-H522 lung, 3.27 µM and 0.552 µM. Further, the GI50 was 0.551 µM and 0.221 µM and 0.198 µM with HOP-62 NSCLC; 0.311 µM and 0.194 µM and 0.183 µM in the test with ACHN renal; 0.82 µM and 0.368 µM and 0.424 µM in the test on HCT-116 colon; 1.27 µM and 0.511 µM and 0.515 µM in the test on MALME-3M melanoma. For the same compound, the TGI in the test with OVCAR-3 ovarian is 7.66 µM [middle of 8 runs].
Take `NC1=NC(c2ccc(Cl)cc2)N(c2ccc(S(N)(=O)=O)cc2)C(N)=N1` (stereo unspecified): the TGI in the test with CAKI-1 renal, in the test with SK-MEL-2 melanoma, with RXF 393 renal, in the test on A498 renal, in the test with OVCAR-3 ovarian and in the test on NCI-H522 lung was over 100 µM each time. Besides, the TGI in the test with HOP-62 NSCLC, in the test with ACHN renal, in the test on HCT-116 colon and with MALME-3M melanoma was over 100 µM each time.
